The values that follow come from patent US20260294893A1, “NOVEL RAS INHIBITORS” (KHR Biotec GmbH, priority 2022, published 2026).

Usually IC50 stands for the midpoint of a concentration-inhibition curve. Higher therefore signals weaker potency.

For one series, the target named is T1, KRAS G12V (Homo sapiens, UniProt P01116, G12V).
T1 construct: CRAF RBD (1-149) fused to SmBiT; transfected cells
The series can be described thus: NanoBit assay for RAS activation (LgBiT-KRAS G12V / SmBiT-CRAF RBD). The series is classed as cell-based. To be noted: 2 h with inhibitor, serum free DMEM. As for the experimental part: (§1) FIGS. 1a), 1b) and 1c): NanoBit assay for RAS activation (KRAS G12V, NRAS G12V, HRAS G12V)
(§2) N-terminal LgBiT and C-terminal SmBiT construct was purchased from Promega and K, N and HRAS G12V (full length) was cloned with Xho I and Bgl II to LgBit and CRAF Ras binding domain (1-149) was cloned with EcoRI and Bgl II to SmBit. For transfections, 1 μg or 2 μg of (12 well/6 well) plasmids were transfected into cells with 0.5 mM of PEI reagent in 100 μl or 200 μl PBS. One day after transfection, cells were harvested and seeded into 96 well white plates, half area (Greiner). After an additional day the medium was changed to serum free DMEM and the cells were incubated for 2 h with inhibitor. NanoGlo assay was performed according to the manufacturer's instructions. The luminescence was measured using Tecan infinite (Tecan).
(§3) HeLa S3 (DSMZ) were authenticated by Eurofin genomics and cultured in DMEM (10% heat inactivated FBS). NCI-H358 cells were cultured in RPMI-1640 (10% heat inactivated FBS).

The next series deals with T2, NRAS G12V (Homo sapiens, UniProt P01111, G12V).
T2 construct: CRAF RBD (1-149) fused to SmBiT; transfected cells (HeLa S3 likely), NanoBiT
In words: NanoBit assay for RAS activation (LgBiT-NRAS G12V / SmBiT-CRAF RBD). In kind it is cell-based. To be noted: 2 h with inhibitor, serum free DMEM. As for the experimental part: as §1, §2, §3

Another series deals with T3, HRAS G12V (Homo sapiens, UniProt P01112, G12V).
T3 construct: CRAF RBD (1-149) fused to SmBiT; transfected cells (HeLa S3 likely), NanoBiT
In words: NanoBit assay for RAS activation (LgBiT-HRAS G12V / SmBiT-CRAF RBD). In kind it is cell-based. To be noted: 2 h with inhibitor, serum free DMEM. As for the experimental part:
as §1, §2, §3

Another series concerns NCI-H358. The series can be described thus: Soft agar colony formation assay, MTT. In kind it is cell-based. To be noted: Homo sapiens, 3 independent experiments. As to the method: (§4) FIGS. 2a), 2b) and 2c): MTT assay for cell growth
(§5) Metabolic activity was quantified using Cell Proliferation Kit I (Roche, Basel, Switzerland). Cells were seeded in 96-well cell culture plates, using 5000 cells per well for NCI-H358 cells. After treatment, 10 μl of MTT solution was added and incubated for 2 h in CO2 incubator. Then 100 μl of solubilization buffer was added to each well and incubated overnight in CO2 incubator. Cell viability, assessed by the amount of metabolized MTT, was quantified by measuring absorbance at 570 nm.
(§6) MTT assay for the growth of different tumour cell lines with RAS mutations in soft agar with Sanguinarine chloride. Shown are data from three independent experiments. NCI-H358, H358, H2122, ASPC-1, HCT-116, T24 and HT1080 cells were used for the soft agar colony formation assay. After the treatment with Sanguinarine chloride, the colonies were stained with MTT and the value was quantified by measuring absorbance at 570 nm after solubilization. The results represent mean±SEM from 3 independent experiments.
as §3

A further series has as its system ASPC1. In words: Soft agar colony formation assay, MTT. The series is classed as cell-based. To be noted: Homo sapiens, 3 independent experiments. As for the experimental part: as §4, §5, §6
The next series deals with HCT-116. The series can be described thus: Soft agar colony formation assay, MTT. In kind it is cell-based. To be noted: Homo sapiens; HCT-116, soft agar, 3 independent experiments. As to the method:
as §4, §5, §6

The next series deals with HT1080. The series can be described thus: Soft agar colony formation assay, MTT. The series is classed as cell-based. To be noted: Homo sapiens, HT-1080, 3 independent experiments. As to the method: as §4, §5, §6
A further series deals with NCI-H2122. The series can be described thus: Soft agar colony formation assay, MTT. The series is classed as cell-based. To be noted: Homo sapiens, 3 independent experiments. As for the experimental part:
as §4, §5, §6

In another series the test system is T24. The series can be described thus: Soft agar colony formation assay, MTT. The series is classed as cell-based. To be noted: Homo sapiens, T-24, 3 independent experiments. As to the method:
as §4, §5, §6

The subject of series [1] is different RAS-isoform addicted cell-lines. In words: Soft agar colony formation assay, MTT. In kind it is cell-based. As to the method: as §4, §5, §6
The test system of series [2] is KRAS mutants (G12V, G12C, G12D, G12C/Y96D, G13C, G13D, G13S, Q61K and Q61R). The series can be described thus: NanoBiT assay for the RAS GTP-loading in HeLa cells transfected with LgBit-KRAS mutants and SmBit-CRAF-RBD. In kind it is cell-based. To be noted: 2 h, serum-free DMEM. As to the method: NanoBiT assay for the RAS GTP-loading was performed in HeLa cells transfected with LgBit-KRAS mutants and SmBit-CRAF-RBD. Cells were treated with Sanguinarine chloride for 2 h in serum-free DMEM. After incubation, the substrate for NanoLuc was added, and the luminescence was measured in a multiplate reader. Data were normalized to cells transfected with the indicated mutant and exposed to DMSO for 2 h. DMSO-treated cells were set as 1. The bars represent mean±SEM from 3 independent experiments.
as §3

Another series has as its system BaF3 KRAS G12C/Y96D. In words: MTT assay for cell viability. The series is classed as cell-based. To be noted: Mus musculus, 48 h, 3 independent experiments. As to the method: (§7) FIGS. 4a) and 4b): MTT assay for cell viability in 96 well cell culture plate Cells were treated with Sanguinarine chloride for 48 h and cell viability was evaluated by MTT assay. DMSO-treated cells were set as 1. The results shown are mean±SEM from 3 independent experiments.
A general note: Tetrazolium assays rely on reduction of a dye to a coloured formazan, in cell work by metabolically active cells.

Another series relates to BaF3 KRAS G12C. In words: MTT assay for cell viability. The series is classed as cell-based. Particulars: Mus musculus, 48 h, 3 independent experiments. As to the method:
as §7

A further series relates to KRAS dependent cells. In words: MTT assay for cell viability. Particulars: 48 h, irrespective of the presence of mutation. In kind it is cell-based. As for the experimental part: as §7
Another series concerns sNF96.2. In words: RASOpathie-Model; MTT assay for cell viability. The series is classed as cell-based. To be noted: sNF96.2, 48 h. As for the experimental part:
FIG. 5: RASOpathie-Model Sanguinarine chloride; MTT assay for cell viability in 96 well cell culture plate
Cells were treated with Sanguinarine chloride for 48 h and cell viability was evaluated by MTT assay. DMSO-treated cells were set as 1. The results shown are mean±SEM from 3 independent experiments.

Series [3] deals with Na+/K+-ATPase transmembrane protein. To be noted: through action on the Na+/K+-ATPase; cited from earlier work.

T3 sequence (P01112 1-186 G12V): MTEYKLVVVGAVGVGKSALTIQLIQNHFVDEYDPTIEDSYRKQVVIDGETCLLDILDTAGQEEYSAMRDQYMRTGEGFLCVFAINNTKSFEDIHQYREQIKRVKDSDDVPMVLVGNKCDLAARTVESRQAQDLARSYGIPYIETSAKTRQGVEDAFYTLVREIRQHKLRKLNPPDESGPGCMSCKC
T1 sequence (P01116 1-188 isoform P01116-2 G12V): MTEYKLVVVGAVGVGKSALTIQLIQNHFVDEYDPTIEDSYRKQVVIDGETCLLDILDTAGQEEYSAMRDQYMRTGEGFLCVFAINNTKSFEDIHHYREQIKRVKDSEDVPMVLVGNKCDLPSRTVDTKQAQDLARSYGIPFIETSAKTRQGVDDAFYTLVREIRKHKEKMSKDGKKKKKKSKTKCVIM
T2 sequence (P01111 1-186 G12V): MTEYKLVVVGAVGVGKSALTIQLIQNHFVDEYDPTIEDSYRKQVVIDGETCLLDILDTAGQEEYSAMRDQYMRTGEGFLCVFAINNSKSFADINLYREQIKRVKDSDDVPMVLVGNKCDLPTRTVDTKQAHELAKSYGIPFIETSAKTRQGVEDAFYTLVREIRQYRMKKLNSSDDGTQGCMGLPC

`C[n+]1cc2c3c(ccc2c2ccc4cc5c(cc4c21)OCO5)OCO3.[Cl-]` [Sanguinarine chloride, 13-Methyl-[1,3]benzodioxolo[5,6-c]-1,3-dioxolo[4,5-i]phenanthridinium chloide]: the “inhibition of K-RAS activation” value at KRAS G12V is listed as “inhibits”. The “inhibition of N-RAS activation” value at NRAS G12V was “inhibits”. Also, the “inhibition of H-RAS activation” value on HRAS G12V is reported as “inhibits”. The IC50 turned out to be 1.45 µM in the series on NCI-H358; 0.97 µM with ASPC1; 0.53 µM with HCT-116; 0.87 µM in the series with HT1080; 1.55 µM in the series with NCI-H2122; 1.02 µM with T24. Moreover, the IC50 with BaF3 KRAS G12C/Y96D turned out to be 1.76 µM; in the series on BaF3 KRAS G12C, 1.19 µM; with sNF96.2 (3 independent experiments), 1.39 µM. The “growth of RAS-isoform addicted cell-lines” value in [1] is “blocks the growth of different RAS-isoform addicted cell-lines and stops the growth of cancer”. Moreover, the “inhibition of different RAS-isoforms (RAS GTP-loading)” value in series [2] was “inhibits different RAS-isoforms”. For the same molecule, the “inhibition of KRAS dependent cells” value in the series with KRAS dependent cells is listed as “inhibits KRAS dependent cells irrespective of the presence of mutation”. Besides, the “inhibition of RAS protein of RASOpathie” value in the series on sNF96.2 (MTT) is reported as “inhibits RAS protein of RASOpathie”.
For the molecule `C[n+]1cc2c3c(ccc2c2ccc4cc5c(cc4c21)OCO5)OCO3` [Sanguinarine, 13-Methyl[1,3]benzodioxolo[5,6-c]-1,3-dioxolo[4,5-J]phenanthridinium], the “toxicity to animal cells” value in series [3] is “kills animal cells through its action on the Na+/K+-ATPase transmembrane protein”.
